Among the data in patent US11337964B2, “Isoindoline derivative, pharmaceutical composition and use thereof” (Kangpu Biopharmaceuticals, Ltd., priority 2017, dated 2022) are IC50 values, retold here.

Molecules are shown by their SMILES.

What all share (type): biochemical
Holding throughout (conditions): FAM-cAMP substrate, 30 minutes at room temperature

One test addresses T1, PDE4B1 (Homo sapiens, UniProt Q07343).
T1 construct: purchased BPS 60041
Kind of test: PDE4 activity inhibition assay, PDE4B1. On the procedure: (§1) The IC50 value of the inhibitory effect of the compound on PDE4A1A, PDE4B1 and PDE4D3 was tested.
(§2) Positive compound: Trequinsin (Sigma, Cat. No. T2057).
(§3) Equipment: Wallac Victor Multi-label counter (Perkin Elmer).
(§4) I. Preparing 1× reaction liquid and termination liquid;
(§5) II. PDE enzymatic reaction; • 1) The PDE was dissolved in 1× reaction solution to form 2× enzyme solution. • 2) FAM-cAMP was dissolved in 1× reaction solution to form 2× substrate solution. • 3) Echo 550 was used to transfer the corresponding volume of the compound in DMSO solution to the reaction plate. • 4) 2× enzyme solution was added into the corresponding well of the reaction plate and incubated with the compound solution at room temperature for 15 minutes. • 5) 2× substrate solution was added into the corresponding well of the reaction plate to initiate the reaction. • 6) Reaction plate was incubated at room temperature for 30 minutes and terminated by adding termination liquid, then incubated at room temperature for 60 minutes.
(§6) The inhibition rate was calculated by Excel; IC50 was calculated by GraphPad Prism.

For a further test, the target named is T2, PDE4D3 (Homo sapiens, UniProt Q08499).
T2 construct: purchased BPS 60046
Kind of test: PDE4 activity inhibition assay, PDE4D3. As for the experimental part: as §1, §2, §3, §4, §5, §6

Another test has as its target T3, PDE4A1A (Homo sapiens, UniProt P27815).
T3 construct: purchased BPS 60040
Kind of test: PDE4 activity inhibition assay, PDE4A1A. As for the experimental part:
as §1, §2, §3, §4, §5, §6

T1 sequence (Q07343 whole entry): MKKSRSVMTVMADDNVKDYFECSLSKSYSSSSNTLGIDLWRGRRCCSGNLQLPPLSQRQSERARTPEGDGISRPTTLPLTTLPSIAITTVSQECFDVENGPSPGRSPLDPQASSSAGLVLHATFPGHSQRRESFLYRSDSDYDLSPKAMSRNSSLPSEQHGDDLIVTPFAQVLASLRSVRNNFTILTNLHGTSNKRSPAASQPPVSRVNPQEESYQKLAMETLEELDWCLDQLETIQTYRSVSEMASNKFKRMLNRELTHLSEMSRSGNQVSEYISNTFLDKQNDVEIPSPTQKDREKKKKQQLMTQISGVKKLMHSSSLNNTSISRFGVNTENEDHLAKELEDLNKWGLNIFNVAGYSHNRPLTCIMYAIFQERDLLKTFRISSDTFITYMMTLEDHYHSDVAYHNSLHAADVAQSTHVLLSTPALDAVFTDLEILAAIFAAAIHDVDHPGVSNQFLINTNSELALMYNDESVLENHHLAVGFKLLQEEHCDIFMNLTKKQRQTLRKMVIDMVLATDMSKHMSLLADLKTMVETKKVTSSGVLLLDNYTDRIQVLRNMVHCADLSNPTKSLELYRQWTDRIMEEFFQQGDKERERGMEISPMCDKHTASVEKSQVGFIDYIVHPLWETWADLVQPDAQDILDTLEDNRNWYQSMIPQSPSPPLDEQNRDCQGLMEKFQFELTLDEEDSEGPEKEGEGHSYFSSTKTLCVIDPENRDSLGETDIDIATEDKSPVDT
T2 sequence (Q08499 1-673 isoform Q08499-2): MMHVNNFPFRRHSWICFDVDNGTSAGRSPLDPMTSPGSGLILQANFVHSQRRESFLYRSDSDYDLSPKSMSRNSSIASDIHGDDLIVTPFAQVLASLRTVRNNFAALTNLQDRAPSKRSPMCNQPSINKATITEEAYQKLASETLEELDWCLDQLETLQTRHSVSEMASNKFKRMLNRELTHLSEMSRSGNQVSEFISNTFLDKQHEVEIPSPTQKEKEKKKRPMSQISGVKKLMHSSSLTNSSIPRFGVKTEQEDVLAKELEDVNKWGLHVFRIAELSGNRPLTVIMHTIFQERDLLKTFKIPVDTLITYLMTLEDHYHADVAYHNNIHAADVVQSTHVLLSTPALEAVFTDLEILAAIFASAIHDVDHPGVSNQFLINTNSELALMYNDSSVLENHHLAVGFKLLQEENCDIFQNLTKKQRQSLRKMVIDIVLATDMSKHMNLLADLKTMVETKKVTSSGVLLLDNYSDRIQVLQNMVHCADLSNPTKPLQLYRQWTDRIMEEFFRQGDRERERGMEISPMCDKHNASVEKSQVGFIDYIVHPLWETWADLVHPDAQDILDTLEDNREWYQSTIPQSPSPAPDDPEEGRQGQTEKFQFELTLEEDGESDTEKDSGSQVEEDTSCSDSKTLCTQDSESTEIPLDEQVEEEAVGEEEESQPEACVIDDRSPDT
T3 sequence (P27815 1-647 isoform P27815-4): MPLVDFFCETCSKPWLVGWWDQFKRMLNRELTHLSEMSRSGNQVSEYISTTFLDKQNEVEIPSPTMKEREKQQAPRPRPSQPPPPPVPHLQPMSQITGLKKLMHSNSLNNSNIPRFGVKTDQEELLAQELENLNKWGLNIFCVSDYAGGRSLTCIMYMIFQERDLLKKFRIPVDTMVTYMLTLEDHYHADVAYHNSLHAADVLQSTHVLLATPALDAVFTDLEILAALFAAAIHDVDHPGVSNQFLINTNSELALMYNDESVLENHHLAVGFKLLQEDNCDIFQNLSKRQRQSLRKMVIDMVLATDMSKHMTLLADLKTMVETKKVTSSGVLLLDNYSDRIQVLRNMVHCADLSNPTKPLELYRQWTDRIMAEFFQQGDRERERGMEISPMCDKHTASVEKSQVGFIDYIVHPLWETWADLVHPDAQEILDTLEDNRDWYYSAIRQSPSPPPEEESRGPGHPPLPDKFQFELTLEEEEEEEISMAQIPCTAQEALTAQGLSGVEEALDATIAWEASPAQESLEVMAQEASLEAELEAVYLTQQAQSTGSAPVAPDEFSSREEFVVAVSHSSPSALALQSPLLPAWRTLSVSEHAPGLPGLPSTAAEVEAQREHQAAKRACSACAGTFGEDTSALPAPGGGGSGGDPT

`CCOc1cc(C(CS(C)(=O)=O)N2C(=O)c3c(F)ccc(NC(C)=O)c3C2=O)ccc1OC` (stereo not drawn) [Compound 101, N-(2-(1-(3-ethoxy-4-methoxyphenyl)-2-(methylsulfonyl)ethyl)-7-fluoro-1,3-dioxoisoindolin-4-yl)acetamide]: the results for the IC50 against PDE4B1, at PDE4D3 and against PDE4A1A were 27 nM, 12 nM and 17 nM, respectively.

`CCOc1cc([C@@H](CS(C)(=O)=O)N2C(=O)c3c(F)ccc(NC(C)=O)c3C2=O)ccc1OC` [Compound 102, (S)—N-(2-(1-(3-ethoxy-4-methoxyphenyl)-2-(methylsulfonyl)ethyl)-7-fluoro-1,3-dioxoisoindolin-4-yl)acetamide]: the IC50 against PDE4B1 turned out to be 14 nM; on PDE4D3 it was 7.4 nM; at PDE4A1A, 11 nM.

On to `[2H]C([2H])([2H])Oc1ccc([C@H](CS(C)(=O)=O)N2C(=O)c3c(F)ccc(NC(C)=O)c3C2=O)cc1OCC` [Compound 104, (R)—N-(2-(1-(3-ethoxy-4-d3-methoxyphenyl)-2-(methylsulfonyl)ethyl)-7-fluoro-1,3-dioxoisoindolin-4-yl)acetamide], for which the half-maximal inhibitory concentration (IC50) against PDE4B1 worked out at 70 nM; against PDE4D3, 31 nM; at PDE4A1A, 53 nM.

As for `[2H]C([2H])([2H])Oc1ccc([C@@H](CS(C)(=O)=O)N2C(=O)c3c(F)ccc(NC(C)=O)c3C2=O)cc1OC([2H])([2H])[2H]` [Compound 105, (S)—N-(2-(1-(3,4-d6-dimethoxyphenyl)-2-(methylsulfonyl)ethyl)-7-fluoro-1,3-dioxoisoindolin-4-yl)acetamide], the IC50 at PDE4B1 worked out at 97 nM; against PDE4D3 it was 41 nM; at PDE4A1A, 61 nM.

With `[2H]C([2H])([2H])Oc1ccc([C@H](CS(C)(=O)=O)N2C(=O)c3c(F)ccc(NC(C)=O)c3C2=O)cc1OC([2H])([2H])[2H]` [Compound 106, (R)—N-(2-(1-(3,4-d6-dimethoxyphenyl)-2-(methylsulfonyl)ethyl)-7-fluoro-1,3-dioxoisoindolin-4-yl)acetamide], the IC50 against PDE4B1 is 493 nM; at PDE4D3, 300 nM; at PDE4A1A, 340 nM.

`[2H]C([2H])([2H])Oc1ccc([C@@H](CS(C)(=O)=O)N2C(=O)c3c(F)ccc(NC(C)=O)c3C2=O)cc1OC([2H])([2H])C([2H])([2H])[2H]` [Compound 107, (S)—N-(2-(1-(3-d5-ethoxy-4-d3-methoxyphenyl)-2-(methylsulfonyl)ethyl)-7-fluoro-1,3-dioxoisoindolin-4-yl)acetamide]: the results for the IC50 at PDE4B1, at PDE4D3 and on PDE4A1A were 12 nM, 4.6 nM and 8.3 nM, respectively.

With `CCOc1cc([C@@H](CS(C)(=O)=O)N2C(=O)c3c(Cl)ccc(NC(C)=O)c3C2=O)ccc1OC` [Compound 111, (S)—N-(7-chloro-2-(1-(3-ethoxy-4-methoxyphenyl)-2-(methylsulfonyl)ethyl)-1,3-dioxoisoindolin-4-yl)acetamide], the IC50 at PDE4B1 is 4.3 nM; on PDE4D3 it was 1.9 nM; against PDE4A1A, 1.3 nM.

As to `[2H]C([2H])([2H])Oc1ccc([C@@H](CS(C)(=O)=O)N2C(=O)c3c(Cl)ccc(NC(C)=O)c3C2=O)cc1OCC` [Compound 113, (S)—N-(7-chloro-2-(1-(3-ethoxy-4-d3-methoxyphenyl)-2-(methylsulfonyl)ethyl)-1,3-dioxoisoindolin-4-yl)acetamide], the half-maximal inhibitory concentration (IC50) turned out to be 5.1 nM against PDE4B1, 1.3 nM at PDE4D3 and 2.1 nM against PDE4A1A.

With `CCOc1cc([C@@H](CS(C)(=O)=O)N2C(=O)c3c(C#N)ccc(NC(C)=O)c3C2=O)ccc1OC` [Compound 115, (S)—N-(7-cyano-2-(l 1-(3-ethoxy-4-methoxyphenyl)-2-(methylsulfonyl)ethyl)-1,3-dioxoisoindolin-4-yl)acetamide], the IC50 against PDE4B1 turned out to be 17.3 nM; against PDE4D3, 5.7 nM; against PDE4A1A, 6 nM.

Take `[2H]C([2H])([2H])Oc1ccc([C@@H](CS(C)(=O)=O)N2C(=O)c3c(F)ccc(NC(=O)C4CC4)c3C2=O)cc1OCC` [Compound 118, (S)—N-(2-(1-(3-ethoxy-4-d3-methoxyphenyl)-2-(methylsulfonyl)ethyl)-7-fluoro-1,3-dioxoisoindolin-4-yl)cyclopropanecarboxamide]: the IC50 at PDE4B1 was determined as 8.7 nM; at PDE4D3 it was 2.5 nM; against PDE4A1A, 5.1 nM.

As for `[2H]C([2H])([2H])Oc1ccc([C@@H](CS(C)(=O)=O)N2C(=O)c3cccc(NC(=O)C4CC4)c3C2=O)cc1OCC` [Compound 120, (S)—N-(2-(1-(3-ethoxy-4-d3-methoxyphenyl)-2-(methylsulfonyl)ethyl)-1,3-dioxoisoindolin-4-yl)cyclopropanecarboxamide], the IC50 was 11 nM on PDE4B1, 4.9 nM on PDE4D3 and 7.6 nM at PDE4A1A.

`CCOc1cc(C(CS(C)(=O)=O)N2C(=O)c3c(F)ccc(NC(C)=O)c3C2=O)ccc1OC(F)F` (stereo not drawn) [Compound 121, N-(2-(1-(4-(difluoromethoxy)-3-ethoxyphenyl)-2-(methylsulfonyl)ethyl)-7-fluoro-1,3-dioxoisoindolin-4-yl)acetamide]: the results for the IC50 against PDE4B1, against PDE4D3 and at PDE4A1A were 7 nM, 0.9 nM and 3.4 nM, respectively.

Regarding `CCOc1cc(C(CS(C)(=O)=O)N2C(=O)c3cc(F)cc(NC(C)=O)c3C2=O)ccc1OC` (stereo not drawn) [Compound 201, N-(2-(1-(3-ethoxy-4-methoxyphenyl)-2-(methylsulfonyl)ethyl)-6-fluoro-1,3-dioxoisoindolin-4-yl)acetamide], the IC50 on PDE4B1 was found to be 41 nM; on PDE4D3, 25 nM; against PDE4A1A, 39 nM.

As to `CCOc1cc([C@@H](CS(C)(=O)=O)N2C(=O)c3cc(F)cc(NC(C)=O)c3C2=O)ccc1OC` [Compound 202, (S)—N-(2-(1-(3-ethoxy-4-methoxyphenyl)-2-(methylsulfonyl)ethyl)-6-fluoro-1,3-dioxoisoindolin-4-yl)acetamide], the 50% inhibitory concentration (IC50) came out at 11 nM on PDE4B1, 5.4 nM at PDE4D3 and 11 nM at PDE4A1A.

In the case of `[2H]C([2H])([2H])Oc1ccc([C@H](CS(C)(=O)=O)N2C(=O)c3cc(F)cc(NC(C)=O)c3C2=O)cc1OCC` [Compound 204, (R)—N-(2-(1-(3-ethoxy-4-d3-methoxyphenyl)-2-(methylsulfonyl)ethyl)-6-fluoro-1,3-dioxoisoindolin-4-yl)acetamide], the IC50 against PDE4B1 stood at 157 nM; against PDE4D3 it was 83 nM; on PDE4A1A, 133 nM.

As for `[2H]C([2H])([2H])Oc1ccc([C@@H](CS(C)(=O)=O)N2C(=O)c3cc(F)cc(NC(C)=O)c3C2=O)cc1OC([2H])([2H])[2H]` [Compound 205, (S)—N-(2-(1-(3,4-d6-dimethoxyphenyl)-2-(methylsulfonyl)ethyl)-6-fluoro-1,3-dioxoisoindolin-4-yl)acetamide], the IC50 turned out to be 165 nM against PDE4B1, 79 nM against PDE4D3 and 123 nM against PDE4A1A.

Regarding `[2H]C([2H])([2H])Oc1ccc([C@H](CS(C)(=O)=O)N2C(=O)c3cc(F)cc(NC(C)=O)c3C2=O)cc1OC([2H])([2H])[2H]` [Compound 206, (R)—N-(2-(1-(3,4-d6-dimethoxyphenyl)-2-(methylsulfonyl)ethyl)-6-fluoro-1,3-dioxoisoindolin-4-yl)acetamide], the half-inhibitory concentration (IC50) at PDE4B1 amounted to 1350 nM; against PDE4D3, 997 nM; on PDE4A1A it was 1460 nM.

Take `[2H]C([2H])([2H])Oc1ccc([C@@H](CS(C)(=O)=O)N2C(=O)c3cc(F)cc(NC(C)=O)c3C2=O)cc1OC([2H])([2H])C([2H])([2H])[2H]` [Compound 207, (S)—N-(2-(1-(3-d5-ethoxy-4-d3-methoxyphenyl)-2-(methylsulfonyl)ethyl)-6-fluoro-1,3-dioxoisoindolin-4-yl)acetamide]: the concentration for half-maximal inhibition (IC50) against PDE4B1 was determined as 20 nM; against PDE4D3, 12 nM; against PDE4A1A, 20 nM.

Turning to `CCOc1cc(C(CS(C)(=O)=O)N2C(=O)c3ccc(F)c(NC(C)=O)c3C2=O)ccc1OC` (stereo not drawn) [Compound 301, N-(2-(1-(3-ethoxy-4-methoxyphenyl)-2-(methylsulfonyl)ethyl)-5-fluoro-1,3-dioxoisoindolin-4-yl)acetamide], the results for the IC50 at PDE4B1, against PDE4D3 and against PDE4A1A were 116 nM, 65 nM and 102 nM, respectively.

On to `CCOc1cc([C@@H](CS(C)(=O)=O)N2C(=O)c3ccc(F)c(NC(C)=O)c3C2=O)ccc1OC` [Compound 302, (S)—N-(2-(1-(3-ethoxy-4-methoxyphenyl)-2-(methylsulfonyl)ethyl)-5-fluoro-1,3-dioxoisoindolin-4-yl)acetamide], for which the IC50 on PDE4B1 amounted to 41 nM; against PDE4D3, 22 nM; against PDE4A1A it was 33 nM.

With `CCOc1cc(C(CS(C)(=O)=O)N2C(=O)c3ccnc(NC(C)=O)c3C2=O)ccc1OC` (stereo not drawn) [Compound 401, N-(2-(1-(3-ethoxy-4-methoxyphenyl)-2-(methylsulfonyl)ethyl)-1,3-dioxo-2,3-dihydro-1H-pyrrolo[3,4-c]pyridin-4-yl)acetamide], the IC50 against PDE4B1 came to 211 nM; on PDE4D3 it was 110 nM; on PDE4A1A, 182 nM.

In the case of `CCOc1cc([C@@H](CS(C)(=O)=O)N2C(=O)c3cncc(NC(C)=O)c3C2=O)ccc1OC` [Compound 502, (S)—N-(2-(1-(3-ethoxy-4-methoxyphenyl)-2-(methylsulfonyl)ethyl)-1,3-dioxo-2,3-dihydro-1H-pyrrolo[3,4-c]pyridin-7-yl)acetamide], the results for the IC50 against PDE4B1, against PDE4D3 and at PDE4A1A were 513 nM, 107 nM and 206 nM, respectively.
